Measured values as given in article PMC6533066 (Biomedical microdevices, 2019).
Structures can show the parent of a compound that is named as a salt.

Columns and labels:
[1] = in vivo; cited from earlier work
[2] = Wistar rats
[3] = 1 mg/kg bolus iv (jugular vein), serum, HPLC-MS/MS, mean ± SD, n = 6 rats, SD
[4] = 1 mg/kg bolus iv, mean ± SD, n = 6 rats, SD

| Compound | detection in ISF [1] | Cmax, Serum [2, 3] | Tmax, Serum [2, 3] | delay in time to peak vancomycin concentration (Tmax) in ISF compared to serum ([2]; 1 mg/kg bolus iv, Student's t-test p < 0.05) | AUC Ratio (ISF:serum) [2, 4] | Cmax Ratio (ISF:serum) [2, 4] | Tmax Ratio (ISF:serum) [2, 4] |
| --- | --- | --- | --- | --- | --- | --- | --- |
| O=C1NC(=O)C(c2ccccc2)(c2ccccc2)N1 [phenytoin] | not detectable | – | – | – | – | – | – |
| CN[C@H](CC(C)C)C(=O)N[C@H]1C(=O)N[C@@H](CC(N)=O)C(=O)N[C@H]2C(=O)N[C@H]3C(=O)N[C@H](C(=O)N[C@H](C(=O)O)c4cc(O)cc(O)c4-c4cc3ccc4O)[C@H](O)c3ccc(c(Cl)c3)Oc3cc2cc(c3O[C@@H]2O[C@H](CO)[C@@H](O)[C@H](O)[C@H]2O[C@H]2C[C@](C)(N)[C@H](O)[C@H](C)O2)Oc2ccc(cc2Cl)[C@H]1O [vancomycin, Vancomycin hydrochloride] | – | 2600 ± 600 ng/mL | 10 ± 0 min | ~ 17 min | 1.3 ± 0.2 | 0.9 ± 0.2 | 2.7 ± 1.6 |
